Laboratory results: PubChem BioAssay AID1963872 (Molecular Pharmacology Branch, DTP, NCI, 2024)

Test system: KRAS patient-derived spheroids with HUVEC/MSC, viability
Assay: Anticancer human tumor 519858-162-T-J1-PDC patient-derived colon adenocarcinoma cell line growth inhibition [KRAS2]
Conditions: for viability, T/C: stronger effect = lower value
Text: Multicellular complex tumor spheroid response to RAS pathway inhibitors in combination with a targeted agents in patient-derived cell lines with oncogenic KRAS variants from multiple cancer types
A high-throughput screen of multi-cell type tumor spheroids was designed to identify active combinations of targeted small molecules and KRAS pathway inhibitors. Complex spheroids include a stromal component modeled by human endothelial cells (HUVEC) and fibroblasts modeled by human mesenchymal stem cells (MSCs). The concentration ranges selected for each drug and investigational agent were based upon clinically achievable concentrations if the clinical Cmax of the agent was known.
Compounds. The drugs and investigational agents: BI-3406 (NSC825286), BAY-293 (NSC824723), batoprotafib (TNO155; NSC825523), sotorasib (AMG 510; NSC818433), MRTX1257 (NSC819558), elimusertib (BAY 1895344; NSC800525), molibresib (GSK525762; NSC774829), temuterkib (LY3214996; NSC803410), venetoclax (NSC766270), alisertib (NSC759677), olaparib (NSC753686), talazoparib (NSC767125), erdafitinib (NSC781556), ipatasertib (NSC767898), cabozantinib (NSC761068), nintedanib (NSC756659), abemaciclib (NSC768073), docetaxel (NSC628503), trametinib (NSC758246), and sapanisertib (NSC764658) were obtained from the National Cancer Institute (NCI) Developmental Therapeutics Program Chemical Repository. The FDA-approved anticancer drug set is available from the Developmental Therapeutics Program. […] The stock solutions were prepared in dimethyl sulfoxide (DMSO, Sigma-Aldrich, St. Louis, MO, cat. D2650) at 800-fold the tested concentration and stored at -70 degrees C prior to their use. All drugs and investigational agents were tested over a range starting from a high concentration at or near the clinical Cmax and decreasing in half-log increments. If the clinical Cmax for an agent had not been determined, the highest concentration tested was 10 microM.
Cell Culture. All cells were maintained in an incubator at 37 degrees C and 5% CO2 with 95% humidity. The PDC lines were cultured according to standard operating procedures established by the NCI PDMR (https://pdmr.cancer.gov/sops/default.htm). Briefly, all PDCs were thawed and cultured in Matrigel-coated flasks prepared with a working solution of 1X Ham's F-12 nutrient mix, without supplementation (Invitrogen, Waltham, MA, cat. 11765054), 100 U/mL penicillin-streptomycin (Invitrogen, cat. 15140122), and 2.5% Matrigel (Corning Inc., Corning, NY, cat. 354248) for the first three passages. All PDCs were cultured in complete DMEM/F-12 media containing advanced DMEM/F-12 (Invitrogen, cat. 12634028), 4.9% defined fetal bovine serum, heat inactivated (HyClone Laboratories Inc., Logan, UT, cat. SH30070.03HI), 389 ng/mL hydrocortisone (Sigma-Aldrich, cat. H4001), 9.7 ng/mL human EGF recombinant protein (Invitrogen, cat. PHG0313), 23.4 microg/mL adenine (Sigma-Aldrich, cat. A2786), 97.3 U/mL penicillin-streptomycin (Invitrogen, cat. 15140122), 1.9 mM L-glutamine (Invitrogen, cat. 25030081), and 9.7 microM Y-27632 dihydrochloride (Tocris Bioscience, Bristol, United Kingdom, cat. 1254). The PDCs were cultured in complete DMEM/F12 media without 9.7 microM Y-27632 dihydrochloride for at least two passages prior to the screen. The established cell line HOP-62 was cultured in RPMI 1640 medium, HEPES (Invitrogen, cat. 22400105) with 10% defined fetal bovine serum (HyClone Laboratories Inc., cat. SH30070.03) and 2 mM L-glutamine (Invitrogen, cat. 25030081). The pooled donor HUVEC were cultured in endothelial cell growth medium 2 (PromoCell, Heidelberg, Germany, cat. C-22011) and the hMSC were cultured in mesenchymal stem cell growth medium 2 (PromoCell, cat. C-28009). For all experiments, HUVEC and hMSC were used at passages </=5, while the malignant cell lines were used at passages </=15. […]

[1] = curve of first compound, second compound 0.1 µM
[2] = curve of first compound, second compound 0.316 µM
[3] = curve of first compound, second compound 1 µM
[4] = curve of first compound, second compound 3.16 µM
[5] = curve of first compound, second compound 10 µM
[6] = second compound 0.1 µM, first compound 0.01 µM
[7] = second compound 0.1 µM, first compound 0.0316 µM
[8] = second compound 0.1 µM, first compound 0.1 µM
[9] = second compound 0.1 µM, first compound 0.316 µM
[10] = second compound 0.1 µM, first compound 1 µM
[11] = second compound 0.1 µM, first compound 3.16 µM
[12] = second compound 0.316 µM, first compound 0.01 µM
[13] = second compound 0.316 µM, first compound 0.0316 µM
[14] = second compound 0.316 µM, first compound 0.1 µM
[15] = second compound 0.316 µM, first compound 0.316 µM
[16] = second compound 0.316 µM, first compound 1 µM
[17] = second compound 0.316 µM, first compound 3.16 µM
[18] = second compound 1 µM, first compound 0.01 µM
[19] = second compound 1 µM, first compound 0.0316 µM
[20] = second compound 1 µM, first compound 0.1 µM
[21] = second compound 1 µM, first compound 0.316 µM
[22] = second compound 1 µM, first compound 1 µM
[23] = second compound 1 µM, first compound 3.16 µM
[24] = second compound 3.16 µM, first compound 0.01 µM
[25] = second compound 3.16 µM, first compound 0.0316 µM
[26] = second compound 3.16 µM, first compound 0.1 µM
[27] = second compound 3.16 µM, first compound 0.316 µM
[28] = second compound 3.16 µM, first compound 1 µM
[29] = second compound 3.16 µM, first compound 3.16 µM
[30] = second compound 10 µM, first compound 0.01 µM
[31] = second compound 10 µM, first compound 0.0316 µM
[32] = second compound 10 µM, first compound 0.1 µM
[33] = second compound 10 µM, first compound 0.316 µM
[34] = second compound 10 µM, first compound 1 µM
[35] = second compound 10 µM, first compound 3.16 µM
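Note: compound exposure lasted seven days before readout.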
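Throughout, for viability, T/C: 100% = DMSO vehicle control viability.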

SMILES | IC50 [1] [nM] | IC50 [2] [nM] | IC50 [3] [nM] | IC50 [4] [nM] | IC50 [5] [nM] | viability, T/C [6] [%] | viability, T/C [7] [%] | viability, T/C [8] [%] | viability, T/C [9] [%] | viability, T/C [10] [%] | viability, T/C [11] [%] | viability, T/C [12] [%] | viability, T/C [13] [%] | viability, T/C [14] [%] | viability, T/C [19] [%] | viability, T/C [20] [%] | viability, T/C [25] [%] | viability, T/C [26] [%] | viability, T/C [31] [%] | viability, T/C [32] [%] | other results
CC1COCCN1c1cc(-c2ccnn2C)c2ccnc(-c3ccn[nH]3)c2n1 (centres undefined) + C=CC(=O)N1CCN(c2nc(=O)n(-c3c(C)ccnc3C(C)C)c3nc(-c4c(O)cccc4F)c(F)cc23)C(C)C1 | 1820 | 2100 | 838 | > 3160 | 340 | 115 | 102 | 89.3 | 82.7 | 61.6 | 38.1 | 87.4 | 94 | 78.4 | 91.8 | 124 | 97.9 | 89.4 | 87 | 61.8 | viability, T/C [15]: 87.9%; viability, T/C [16]: 69.8%; viability, T/C [17]: 39.1%; viability, T/C [18]: 116%; viability, T/C [21]: 78.5%; viability, T/C [22]: 50.1%; viability, T/C [23]: 39.6%; viability, T/C [24]: 110%; viability, T/C [27]: 80.9%; viability, T/C [28]: 68.6%; viability, T/C [29]: 48.8%; viability, T/C [30]: 70.4%; viability, T/C [33]: 56%; viability, T/C [34]: 21.3%; viability, T/C [35]: 20.3%
CC(C)n1nc(-c2ccc3oc(N)nc3c2)c2c(N)ncnc21 | – | – | – | – | – | – | – | – | – | – | – | – | – | – | – | – | – | – | – | – | viability, T/C (compound 0.001 µM): 97.5% [middle of 5 runs]; IC50 (curve of compound): > 100 nM
Cn1ncnc1[C@H]1c2n[nH]c(=O)c3cc(F)cc(c23)N[C@@H]1c1ccc(F)cc1 + CC1OCC2(CCN(c3cnc(Sc4ccnc(N)c4Cl)c(N)n3)CC2)C1N | > 100 | > 100 | > 100 | > 100 | > 100 | 88.9 | 81.5 | 101 | – | – | – | 56.7 | 77.3 | 80.2 | 59.1 | 82.9 | 59.9 | 75.1 | 65.4 | 65.8 | viability, T/C (second compound 0.1 µM, first compound 0.000316 µM): 81.5%; viability, T/C (second compound 0.1 µM, first compound 0.001 µM): 81.4%; viability, T/C (second compound 0.1 µM, first compound 0.00316 µM): 91.9%; viability, T/C (second compound 0.316 µM, first compound 0.000316 µM): 68%; viability, T/C (second compound 0.316 µM, first compound 0.001 µM): 87.3%; viability, T/C (second compound 0.316 µM, first compound 0.00316 µM): 77%; viability, T/C (second compound 1 µM, first compound 0.000316 µM): 99.4%; viability, T/C (second compound 1 µM, first compound 0.001 µM): 58.1%; viability, T/C (second compound 1 µM, first compound 0.00316 µM): 82.4%; viability, T/C [18]: 65.5%; viability, T/C (second compound 3.16 µM, first compound 0.000316 µM): 57.1%; viability, T/C (second compound 3.16 µM, first compound 0.001 µM): 49.4%; viability, T/C (second compound 3.16 µM, first compound 0.00316 µM): 59.5%; viability, T/C [24]: 53.7%; viability, T/C (second compound 10 µM, first compound 0.000316 µM): 62%; viability, T/C (second compound 10 µM, first compound 0.001 µM): 68.4%; viability, T/C (second compound 10 µM, first compound 0.00316 µM): 84.7%; viability, T/C [30]: 65.7%
CNCc1ccccc1-c1csc(C(C)Nc2nc(C)nc3cc(OC)c(OC)cc23)c1 (centres undefined) | – | – | – | – | – | – | – | – | – | – | – | – | – | – | – | – | – | – | – | – | IC50 (compound alone, run of 07/19/2021): 3.87 µM [middle of 5 runs]; IC50 (compound alone, run of 07/26/2021): 3.11 µM [middle of 5 runs]
COC(=O)c1ccc2c(C(=Nc3ccc(N(C)C(=O)CN4CCN(C)CC4)cc3)c3ccccc3)c(O)[nH]c2c1 + COc1cc2nc(C)nc(NC(C)c3cc(N)cc(C(F)(F)F)c3)c2cc1OC1CCOC1 | > 10000 | > 10000 | > 10000 | > 10000 | 4740 | – | 71.2 | 44.7 | 48.3 | 71.4 | 85.2 | – | 59.1 | 51.8 | 64.5 | 57.3 | 64.3 | 64.6 | 66.2 | 53.3 | viability, T/C (second compound 0.1 µM, first compound 10 µM): 113%; viability, T/C [15]: 92%; viability, T/C [16]: 75.1%; viability, T/C [17]: 62.1%; viability, T/C (second compound 0.316 µM, first compound 10 µM): 73.7%; viability, T/C [21]: 55.1%; viability, T/C [22]: 51.6%; viability, T/C [23]: 51%; viability, T/C (second compound 1 µM, first compound 10 µM): 77.9%; viability, T/C [27]: 50.2%; viability, T/C [28]: 55.2%; viability, T/C [29]: 66.1%; viability, T/C (second compound 3.16 µM, first compound 10 µM): 88.1%; viability, T/C [33]: 56.3%; viability, T/C [34]: 80.9%; viability, T/C [35]: 128%; viability, T/C (second compound 10 µM, first compound 10 µM): 0.38%
